Assay results taken from ChEMBL document CHEMBL6078659, “Comprehensive Insights into the Development of Antitoxoplasmosis Drugs: Current Advances, Obstacles, and Future Perspectives” (J Med Chem, 2024).
pIC50: −log10 of the molar value. Starred links: 1 amine or outer side, 2 acyl side, 3 side chain; linkers in the order of their positions; H or OH if unused. Non-standard residues stand in square brackets, D forms with d. Residues, ends and D or L forms follow the SMILES beside them. X1 = CC[C@@H](C)[C@@H](O[*:1])C(=O)[*:2]; NMeVal(β-OH) = CN[C@H](C(=O)O)C(C)(C)O; NMeF = CN[C@@H](Cc1ccccc1)C(=O)O; NMeV = CN[C@H](C(=O)O)C(C)C

Each compound was assayed on Toxoplasma gondii (assay: Antiparasitic activity against Toxoplasma gondii RH infected in human HFF cells).
Type: functional, organism-based
CC1=C(c2nccs2)O[C@@H]2O[C@@]3(C)CC[C@H]4[C@H](C)CC[C@@H]1[C@@]24OO3 was tested, and the pIC50 was 6.00. In the case of CCCCCCCCCCCCc1c(C)n(O)c2ccccc2c1=O, the pIC50 was 9.10. Work on C=C(C)C1CC=C(C)CC1 (stereo not given) yielded an IC50 of 241 µg/mL. In the case of Cc1[nH]c2cc(F)cc(F)c2c(=O)c1-c1ccc(Oc2ccc(OC(F)(F)F)cc2)cc1, the pIC50 was 8.30. In the case of CC1=CCC(C(C)(C)O)CC1 (stereo not given), the IC50 was 4.4 µg/mL. In the case of C/C=C/C1=C(O)C(=O)c2ccccc2C1=O, the pIC50 was 5.52. For O=C1C2=C(C(=O)c3ccccc31)[C@H]1Oc3ccc(Cl)cc3[C@H]1CO2, the pIC50 was over 6.00. With O=C1C2=C(C(=O)c3ccccc31)[C@H]1Oc3ccc(Br)cc3[C@H]1CO2 the pIC50 was 5.59. Cc1[nH]c2c(c(=O)c1-c1ccc(Oc3ccc(OC(F)(F)F)cc3)cc1)CCCC2 gave a pIC50 of 9.92. CC(C)CCCc1ccc2c(c1)C(=O)C=C(N1CCCC1)C2=O was tested, and the pIC50 was 6.49. Cc1nc[nH]c1-c1nnc(Nc2ccc(I)cc2)s1 showed an IC50 of 4.76 µg/mL. In the case of CC(C)=CCC/C(C)=C\C=O, the IC50 was 24 µg/mL. For COC(=O)C1C(C)=CCCC1(C)C (stereo not given), the IC50 was 242 µg/mL. Work on C/C(=N\Nc1nc(-c2ccc([N+](=O)[O-])cc2)cs1)c1ccc(Nc2nc(N)nc(N)n2)cc1 yielded an IC50 of 14.9 µg/mL. In the case of COC(=O)Cn1c(C(=O)NS(=O)(=O)C2=Cc3ccccc3C2)cc2cc(OC)ccc21, the pIC50 was 6.89. With C[C@@H]1CC[C@H]2[C@@H](C)C(=O)O[C@@H]3O[C@@]4(C)CC[C@@H]1[C@]32OO4 [ARTEMISININ] the pIC50 was 5.77. With C=C(C)C1CC=C(C)C(=O)C1 (stereo not given) [CARVONE] the IC50 was 16.1 µg/mL. With CCCCCCCCCCCCc1c(C)c(=O)c2ccccc2n1O [COMPOUND A] the pIC50 was 9.40. With CC(C)=CCC1=C(O)C(=O)c2ccccc2C1=O [LAPACHOL] the IC50 was 0.4 µg/mL. Compound C=CC(C)(O)CCC=C(C)C (stereo not given) [LINALOOL] has an IC50 of 4.48 µg/mL. Compound Oc1ccccc1 [PHENOL] has an IC50 of 4.77 µg/mL. Compound O=C1C2=C(C(=O)c3ccccc31)[C@H]1Oc3ccccc3[C@H]1CO2 [PTEROCARPANQUINONE] has a pIC50 of 5.60.

What follows are compounds tested on Toxoplasma gondii (assay: Antiparasitic activity against Toxoplasma gondii assessed as parasitic growth inhibition).
Type: functional, organism-based
For O=C(NNC(=S)Nc1ccc(F)cc1)c1cccs1, the pIC50 was 4.48. For C/C=C/C1=C(O)C(=O)c2ccccc2C1=O, the pIC50 was 5.52. O=C1C2=C(C(=O)c3ccccc31)[C@H]1Oc3ccc(Cl)cc3[C@H]1CO2 showed a pIC50 of over 5.00. O=C1C2=C(C(=O)c3ccccc31)[C@H]1Oc3ccc(Br)cc3[C@H]1CO2 showed a pIC50 of 5.59. In the case of CC(C)CCCc1ccc2c(c1)C(=O)C=C(N1CCCC1)C2=O, the pIC50 was 6.49. For O=C1C(O)=C([C@H]2CC[C@H](c3ccc(Cl)cc3)CC2)C(=O)c2ccccc21 [ATOVAQUONE], the pIC50 was 7.15. Compound COc1c(N2CCNC(C)C2)c(F)cc2c(=O)c(C(=O)O)cn(C3CC3)c12 (stereo not given) [GATIFLOXACIN] has an IC50 of 4.1 µg/mL. In the case of Cc1c(F)c(N2CCNC(C)C2)cc2c1c(=O)c(C(=O)O)cn2C1CC1 (stereo not given) [GREPAFLOXACIN], the IC50 was 2.4 µg/mL. CC(C)=CCC1=C(O)C(=O)c2ccccc2C1=O [LAPACHOL] showed a pIC50 of 5.31. Work on COc1c(N2C[C@@H]3CCCN[C@@H]3C2)c(F)cc2c(=O)c(C(=O)O)cn(C3CC3)c12 [MOXIFLOXACIN] yielded an IC50 of 5.1 µg/mL. For O=C1C2=C(C(=O)c3ccccc31)[C@H]1Oc3ccccc3[C@H]1CO2 [PTEROCARPANQUINONE], the pIC50 was 5.60. N[C@@H]1[C@H]2CN(c3nc4c(cc3F)c(=O)c(C(=O)O)cn4-c3ccc(F)cc3F)C[C@@H]12 [TROVAFLOXACIN] was tested, and the IC50 was 0.4 µg/mL.

Each compound was assayed on Toxoplasma gondii (assay: Antiparasitic activity against Toxoplasma gondii RH tachyzoites infected in human HFF cells assessed as parasitic growth inhibition).
Type: functional, organism-based
With COc1ccc2c3ccnc(C)c3n(C)c2c1 the pIC50 was 5.74. For O=c1c2ccc(Oc3ccc(OC(F)(F)F)cc3)cc2[nH]c2cc(Cl)cc(F)c12, the pIC50 was 7.52. In the case of C=CCC1[C@H](O[Si](C)(C)C(C)(C)C)C[C@@H](C(=O)OC)N1CC=C (stereo not given in full), the pIC50 was 5.25. With CC(C)(C)[Si](C)(C)O[C@@H]1C[C@@H](/C=C\I)N2CCCC[C@]12C the pIC50 was 5.41. C=CCC1[C@H](O[Si](C)(C)C(C)(C)C)C[C@@H](C(=O)OC)N1C(=O)OC(C)(C)C (stereo not given in full) showed a pIC50 of 5.41. In the case of O=C1CCC[C@@H]2[C@H]3CCCN4CCC[C@@H](CN12)[C@@H]34 [MATRINE], the pIC50 was 2.99. For O=C1CCC[C@@H]2[C@H]3CCC[N+]4([O-])CCC[C@@H](CN12)[C@@H]34 (stereo not given in full) [OXYMATRINE], the pIC50 was 3.07. Work on O=C1C=C2C=C[C@@H]3C[C@@]2(O1)[C@H]1CCCCN31 [SECURININE] yielded a pIC50 of 5.01.

The compounds below were run against T1, Bifunctional dihydrofolate reductase-thymidylate synthase (Toxoplasma gondii, UniProt Q07422) (assay: Inhibition of Toxoplasma gondii Dihydrofolate reductase).
T1 sequence (Q07422 whole entry): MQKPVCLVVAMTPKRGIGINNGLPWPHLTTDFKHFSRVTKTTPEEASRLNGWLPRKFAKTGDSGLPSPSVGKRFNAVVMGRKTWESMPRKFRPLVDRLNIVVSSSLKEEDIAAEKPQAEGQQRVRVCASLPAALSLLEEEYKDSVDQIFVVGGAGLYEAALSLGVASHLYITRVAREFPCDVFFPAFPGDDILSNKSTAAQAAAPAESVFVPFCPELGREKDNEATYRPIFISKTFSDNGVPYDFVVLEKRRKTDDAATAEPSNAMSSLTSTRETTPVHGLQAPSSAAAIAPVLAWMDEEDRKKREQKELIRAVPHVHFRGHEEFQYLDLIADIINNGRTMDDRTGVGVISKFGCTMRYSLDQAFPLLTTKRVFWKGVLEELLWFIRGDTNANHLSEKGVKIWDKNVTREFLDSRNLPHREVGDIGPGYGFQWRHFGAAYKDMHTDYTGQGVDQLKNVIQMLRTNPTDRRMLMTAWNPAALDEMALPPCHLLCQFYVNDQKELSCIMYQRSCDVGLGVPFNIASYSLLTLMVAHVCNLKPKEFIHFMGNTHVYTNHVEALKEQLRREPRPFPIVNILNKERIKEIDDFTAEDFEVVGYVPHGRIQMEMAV
Compound Cc1ccc(CSc2ncnc3c2ncn3[C@@H]2C[C@H](CO)[C@@H](O)[C@H]2O)cc1 has a pIC50 of 7.92. CC1(C)N=C(N)N=C(N)N1OCCCOc1ccc(OC(F)(F)F)cc1Cl showed a pIC50 of 7.70. O=C(c1ccccc1O)c1[nH]c(Cl)c(Cl)c1-n1c(C(=O)c2ccccc2O)cc(Cl)c1Cl showed a pIC50 of 6.51. O=C(c1ccccc1O)c1[nH]c(Cl)c(Cl)c1-n1c(C(=O)c2ccc(Cl)cc2O)cc(Cl)c1Cl gave a pIC50 of 6.80. O=C(c1cc(Br)c(F)[nH]1)c1cc(Cl)cc(Cl)c1O gave a pIC50 of 6.77. Cc1cc(C)c(O)c(C(=O)c2cc(Br)c(Br)[nH]2)c1 gave a pIC50 of 7.05. CC[C@@H](C)[C@H]1OC(=O)[C@H](C(C)(C)O)N(C)C(=O)[C@H](CC(C)C)NC(=O)[C@H](C(C)C)N(C)C(=O)[C@H]([C@@H](C)CC)NC(=O)[C@@H]2CCCN2C(=O)[C@H](Cc2ccccc2)N(C)C(=O)[C@H](Cc2ccccc2)NC(=O)[C@H](C(C)C)N(C)C1=O [BASIFUNGIN] (cyclo(F[NMeF]PI[NMeV]L[NMeVal(β-OH)][X1][NMeV])) was tested, and the pIC50 was 6.52. O=c1cc(-c2cccc3c2Sc2ccccc2S3)oc(N2CCOCC2)c1 [KU-55933] gave a pIC50 of 8.67.

The compounds below were run on Toxoplasma gondii (assay: Antiparasitic activity against Toxoplasma gondii RH).
Type: functional, organism-based
Compound Oc1ccc(-c2ccc3c(O)cc(O)cc3[o+]2)cc1 has an IC50 of 1.08 µg/mL. Work on COc1cc(O)c2ccc(-c3ccc(O)cc3)[o+]c2c1 yielded an IC50 of 1.48 µg/mL. For C=CCc1cc(OC)c(O[C@@H](C)[C@H](O)c2ccc(O)c(OC)c2)c(OC)c1, the IC50 was 32.4 µg/mL. For COc1cc(OC)c2ccc(-c3ccc(O)cc3)[o+]c2c1, the IC50 was 0.53 µg/mL. C[C@H]1[C@H](C)CC[C@]2(C(=O)Nc3nnn[nH]3)CC[C@]3(C)C(=CC[C@@H]4[C@@]5(C)CCC(=O)C(C)(C)[C@@H]5CC[C@]43C)[C@H]12 (single isomer, unassigned) showed a pIC50 of 3.66. C=C(C)[C@@H]1CC[C@]2(CO)CC[C@]3(C)[C@H](CC[C@@H]4[C@@]5(C)CCC(=O)C(C)(C)[C@@H]5CC[C@]43C)[C@@H]12 [BETULONE] showed a pIC50 of 5.57. CC1(C)CC[C@]2(C(=O)O)CC[C@]3(C)C(=CC[C@@H]4[C@@]5(C)CC[C@H](O)[C@@](C)(CO)[C@@H]5CC[C@]43C)[C@@H]2C1 [HEDERAGENIN] gave a pIC50 of 3.26. In the case of C/C=C/c1cc(OC)c2c(c1)[C@@H](C)[C@H](c1ccc3c(c1)OCO3)O2 [LICARINE B], the IC50 was 14 µg/mL. Compound Oc1cc(O)c2ccc(-c3ccc(O)c(O)c3)[o+]c2c1 [LUTEOLINIDIN] has an IC50 of 0.66 µg/mL. With COc1cc(-c2cc(=O)c3c(O)cc(O)cc3o2)cc(OC)c1O [TRICIN] the IC50 was 12.9 µg/mL.

Each compound was assayed on Toxoplasma gondii (assay: Antiparasitic activity against Toxoplasma gondii).
Type: functional, organism-based
For COc1cc(/C=C/C(=O)C(=Cc2ccc(F)c(F)c2)C(=O)/C=C/c2ccc(O)c(OC)c2)ccc1O, the pIC50 was 6.10. CCCCCCCCCCCCCCCCC1(C)SC(=O)C(CCC)=C1O (stereo not given) was tested, and the pIC50 was 5.70. CCCCCCCCCCCCCCCCC1(C)SC(=O)C(Cc2ccccc2)=C1O (stereo not given) gave a pIC50 of 5.22. COc1cc(C2c3cc(c(O)cc3O)C(c3ccc(O)c(OC)c3)c3cc(c(O)cc3O)C(c3ccc(O)c(OC)c3)c3cc(c(O)cc3O)C(c3ccc(O)c(OC)c3)c3cc2c(O)cc3O)ccc1O (stereo not given) showed an IC50 of over 2000 µg/mL. Compound COc1ccc(/C=C/C(=O)C(=Cc2ccc(F)c(F)c2)C(=O)/C=C/c2ccc(OC)c(OC)c2)cc1OC has a pIC50 of 6.48. COc1cc(/C=C/C(=O)CC(=O)/C=C/c2ccc(O)c(OC)c2)ccc1O [CURCUMIN] gave a pIC50 of 4.42. CC(C)=CCC/C(C)=C/CO [GERANIOL] gave an IC50 of 4 µg/mL. For Oc1ccc(/C=C/c2cc(O)cc(O)c2)cc1 [RESVERATROL], the pIC50 was 4.26. With Oc1cc(Cl)ccc1Oc1ccc(Cl)cc1Cl [TRICLOSAN] the pIC50 was 5.52. For COc1cc(C=O)ccc1O [VANILLIN], the IC50 was 645 µg/mL.
